Assay [1] deals with T1, human B1R receptor (hB1R) (Homo sapiens, UniProt P46663).
T1 construct: expressed in transfected cells; host or cells: CHO K1 cells
T1 sequence (P46663 1-353): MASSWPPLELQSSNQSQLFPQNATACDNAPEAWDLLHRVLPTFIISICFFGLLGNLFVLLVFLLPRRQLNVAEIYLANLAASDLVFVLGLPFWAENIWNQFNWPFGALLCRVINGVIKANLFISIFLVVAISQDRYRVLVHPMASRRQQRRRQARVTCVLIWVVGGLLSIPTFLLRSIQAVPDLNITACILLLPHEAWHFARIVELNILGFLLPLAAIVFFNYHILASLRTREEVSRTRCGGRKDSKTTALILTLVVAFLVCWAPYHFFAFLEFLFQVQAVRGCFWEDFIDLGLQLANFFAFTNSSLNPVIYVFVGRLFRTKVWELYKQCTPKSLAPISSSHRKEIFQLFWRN
As to the kind of experiment: Functional investigation on the bradykinin 1 receptor (B1R), FLIPR Ca2+ assay, hB1R cells. Format: cell-based. The following applies: test substance 10 μM; CHO K1 cells transfected with human B1R gene; Fluo-4 Ca2+ signal; agonist Lys-Des-Arg9-bradykinin at EC80; % of maximum achievable inhibition; read-out: B1R antagonism, human [10 μM] % inhibition. The method, then: (§1) The agonistic or antagonistic action of substances on the bradykinin 1 receptor (B1R) of the human and rat species can be quantified with ectopically expressing cell lines (CHO K1 cells) and with the aid of a Ca^2+-sensitive dyestuff (Fluo-4) in a fluorescent imaging plate reader (FLIPR). The value in % activation is based on the Ca^2+ signal after addition of Lys-Des-[…]-bradykinin (0.5 nM) or Des-[…]-bradykinin (100 nM). Antagonists lead to a suppression of the Ca^2+inflow after addition of the agonist. % inhibition compared with the maximum achievable inhibition is stated. The agonistic or antagonistic action of substances on the bradykinin 1 receptor (B1R) of the human and rat species can be determined with the following assay. In accordance with this assay, the Ca^2+ inflow through the channel is quantified with the aid of a Ca^2+-sensitive dyestuff (type Fluo-4, Molecular Probes Europe BV, Leiden, Holland) in a fluorescent imaging plate reader (FLIPR, Molecular Devices, Sunnyvale, USA). Chinese hamster ovary cells (CHO K1 cells) transfected stably with the human B1R gene (hB1R cells) or the B1R gene of the rat (rB1R cells) are used. For functional studies, these cells are plated out on black 96-well plates with a clear base (BD Biosciences, Heidelberg, Germany or Greiner, Frickenhausen, Germany) in a density of 20,000-35,000 cells/well. The cells are left overnight at 37° C. and 5% CO2 in culture medium (hB1R cells: Nutrient Mixture Ham's F12, Gibco Invitrogen GmbH, Karlsruhe, Germany or DMEM, Sigma-Aldrich, Taufkirchen, Germany; rB1R cells: D-MEM/F12, Gibco Invitrogen GmbH, Karlsruhe, Germany) with 10 vol. % FBS (foetal bovine serum, Gibco Invitrogen GmbH, Karlsruhe, Germany or PAN Biotech GmbH, Aidenbach, Germany). On the following day, the cells are loaded for 60 min at 37° C. with 2.13 μM Fluo-4 (Molecular Probes Europe BV, Leiden Holland) in HBSS buffer (Hank's buffered saline solution, Gibco Invitrogen GmbH, Karlsruhe, Germany) with 2.5 mM probenecid (Sigma-Aldrich, Taufkirchen, Germany) and 10 mM HEPES (Sigma-Aldrich, Taufkirchen, Germany). The plates are then washed 2× with HBSS buffer, and HBSS buffer which additionally contains 0.1% BSA (bovine serum albumin; Sigma-Aldrich, Taufkirchen, Germany), 5.6 mM glucose and 0.05% gelatine (Merck KGaA, Darmstadt, Germany) is added. After a further incubation of 20 minutes at room temperature, the plates are inserted into the FLIPR for the Ca^2+ measurement. Alternatively, the plates are washed with buffer A (15 mM HEPES, 80 mM NaCl, 5 mM KCl, 1.2 mM CaCl2, 0.7 mM MgSO4, 2 g/l glucose, 2.5 mM probenecid), buffer A is added and the plates are loaded with 2.5 μM Fluo-4 and 0.025% Pluronic F127 (Sigma-Aldrich, Taufkirchen, Germany). Thereafter, the cells are washed 2× with buffer A and incubated for 30 minutes at room temperature with buffer A, which additionally contains 0.05% BSA and 0.05% gelatine, and thereafter inserted into the FLIPR for the Ca^2+ measurement. The Ca^2+-dependent fluorescence is measured here before and after addition of substances (λex=488 nm, λem=540 nm). Quantification is by measurement of the highest fluorescence intensity (FC, fluorescence counts) over time. The FLIPR protocol consists of 2 additions of substance. Test substances (10 μM) are first pipetted on to the cells and the Ca^2+ inflow is compared with the control (hB1R: Lys-Des-[…]-bradykinin>=50 nM; rB1R: Des-[…]-bradykinin 10 μM). This gives the result in % activation based on the Ca^2+ signal after addition of Lys-Des-[…]-bradykinin (>=50 nM) or Des-[…]-bradykinin (10 μM). After incubation for 10-20 minutes, Lys-Des-[…]-bradykinin (hB1R) or Des-[…]-bradykinin (rB1R) at the EC80 concentration is applied and the inflow of Ca^2+ is likewise determined. Antagonists lead to a suppression of the Ca^2+ inflow. The percent inhibition compared to the maximum achievable inhibition is calculated. In order to determine the IC50 value, the substances are added in various concentrations. […]

The target of assay [2] is T2, B1R receptor of the rat (rB1R) (Rattus norvegicus, UniProt P97583).
T2 construct: expressed in transfected cells; host or cells: CHO K1 cells
T2 sequence (P97583 1-337): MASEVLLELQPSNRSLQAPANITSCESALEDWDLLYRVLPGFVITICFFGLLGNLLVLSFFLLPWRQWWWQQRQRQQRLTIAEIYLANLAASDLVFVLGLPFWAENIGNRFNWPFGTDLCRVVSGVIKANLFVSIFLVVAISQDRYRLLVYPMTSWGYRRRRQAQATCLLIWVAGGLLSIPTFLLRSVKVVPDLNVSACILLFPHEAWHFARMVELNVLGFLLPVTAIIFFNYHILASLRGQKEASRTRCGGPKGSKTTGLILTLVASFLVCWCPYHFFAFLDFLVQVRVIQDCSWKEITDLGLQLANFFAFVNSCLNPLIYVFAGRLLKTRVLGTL
Put plainly: Functional investigation on the bradykinin 1 receptor (B1R), FLIPR Ca2+ assay, rB1R cells. Format: cell-based. The following applies: test substance 10 μM; CHO K1 cells transfected with rat B1R gene; Fluo-4 Ca2+ signal; agonist Des-Arg9-bradykinin at EC80; % of maximum achievable inhibition; read-out: B1R antagonism, rat [10 μM] % inhibition. The method, then: as §1

Each structure is given as a SMILES string. Structures can show the parent of a compound that is named as a salt.

As a reminder, the inhibition is the relative decrease from the control value, in per cent.

For `Cc1ccc(S(=O)(=O)N2CCC[C@H]2CCCS(=O)(=O)N2CCC3(CCN(c4ccncc4)CC3)CC2)c2ccccc12` [Example 75, 3-(3-((S)-1-(4-Methylnaphthalen-1-ylsulfonyl)pyrrolidin-2-yl)propylsulfonyl)-9-(pyridin-4-yl)-3,9-diazaspiro[5.5]undecane], the values for the inhibition at 10 µM in assay [1] and in assay [2] were 96% and 100%, respectively. On the same counts, the results for `CC1(C)CCc2cc(S(=O)(=O)N3CCC[C@H]3CCCS(=O)(=O)N3CCC(Oc4ccncc4)CC3)ccc2O1` [Example 69, (S)-4-(1-(3-(1-(2,2-Dimethylchroman-6-ylsulfonyl)pyrrolidin-2-yl)propylsulfonyl)piperidin-4-yloxy)pyridine] are 33% and 12%.

Consider `O=S(=O)(CCC[C@@H]1CCCN1S(=O)(=O)c1ccccc1C(F)(F)F)N1CCC2(CCN(c3ccncc3)CC2)CC1` [Example 68, 3-(Pyridin-4-yl)-9-(3-((S)-1-(2-(trifluoromethyl)phenylsulfonyl)pyrrolidin-2-yl)propylsulfonyl)-3,9-diazaspiro[5.5]undecane hydrochloride], for which the inhibition at 10 µM in assay [1] is 100%; in assay [2] it was 96%. For the molecule `O=S(=O)(CCC1CCN(S(=O)(=O)c2c(Cl)cc(C(F)(F)F)cc2Cl)CC1)N1CCC(CCN2CCCC2)CC1` [Example 14, 1-(2,6-Dichloro-4-(trifluoromethyl)phenylsulfonyl)-4-(2-(4-(2-(pyrrolidin-1-yl)ethyl)piperidin-1-ylsulfonyl)ethyl)piperidine], the inhibition at 10 µM in assay [1] stood at 58%.

Consider `CN1CCC(N2CCN(S(=O)(=O)CCC[C@@H]3CCCN3S(=O)(=O)c3cccc(C(F)(F)F)c3)CC2)CC1` [Example 35, (S)-1-(1-Methylpiperidin-4-yl)-4-(3-(1-(3-(trifluoromethyl)phenylsulfonyl)pyrrolidin-2-yl)propylsulfonyl)piperazine], for which the results for the inhibition at 10 µM in assay [1] and in assay [2] were 23% and 91%, respectively.

On to `CN1CCC(N2CCN(S(=O)(=O)CCC[C@@H]3CCCN3S(=O)(=O)c3ccc(Cl)cc3Cl)CC2)CC1` [Example 31, (S)-1-(3-(1-(2,4-Dichlorophenylsulfonyl)pyrrolidin-2-yl)propylsulfonyl)-4-(1-methylpiperidin-4-yl)piperazine], for which the inhibition at 10 µM in assay [1] is 89%; in assay [2], 64%. In the same order, the values of `COc1cc(C)c(S(=O)(=O)N2CCCCC2CCCS(=O)(=O)N2CCN(C3CCN(C)CC3)CC2)c(C)c1` (centres unmarked) [Example 26, 1-(3-(1-(4-Methoxy-2,6-dimethylphenylsulfonyl)piperidin-2-yl)propylsulfonyl)-4-(1-methylpiperidin-4-yl)piperazine] are 96% and 98%. For the molecule `COc1cc(C)c(S(=O)(=O)N2CCC[C@H]2CCCS(=O)(=O)N2CCC3(CCN(c4ccncc4)C3)C2)cc1C` (stereo partly drawn) [Example 84, 2-(3-((S)-1-(4-Methoxy-2,5-dimethylphenylsulfonyl)pyrrolidin-2-yl)propylsulfonyl)-7-(pyridin-4-yl)-2,7-diazaspiro[4.4]nonane], the results for the inhibition at 10 µM in assay [1] and in assay [2] were 96% and 82%, respectively. As for `CN1CCC(N2CCN(S(=O)(=O)CC3CCCCN3S(=O)(=O)c3cccc(C(F)(F)F)c3)CC2)CC1` (centres unmarked) [Example 37, 1-(1-Methylpiperidin-4-yl)-4-((1-(3-(trifluoromethyl)phenylsulfonyl)piperidin-2-yl)methylsulfonyl)piperazine], the results for the inhibition at 10 µM in assay [1] and in assay [2] were 53% and 40%, respectively. On the same counts, the results for `COc1cc(C)c(S(=O)(=O)N2CCC(CCS(=O)(=O)N3CCC(CCN4CCCC4)CC3)C2)c(C)c1C` (centres unmarked) [Example 16, 1-(2-(1-(4-Methoxy-2,3,6-trimethylphenylsulfonyl)pyrrolidin-3-yl)ethylsulfonyl)-4-(2-(pyrrolidin-1-yl)ethyl)piperidine hydrochloride] are 97% and 13%.

For the molecule `O=S(=O)(CCC[C@@H]1CCCN1S(=O)(=O)c1ccc2ccccc2c1)N1CCC(Oc2ccncc2)CC1` [Example 49, (S)-4-(1-(3-(1-(Naphthalen-2-ylsulfonyl)pyrrolidin-2-yl)propylsulfonyl)piperidin-4-yloxy)pyridine], the inhibition at 10 µM in assay [1] turned out to be 30%; in assay [2] it was 36%. On to `COc1cc(C)c(S(=O)(=O)N2CCC[C@H]2CCCS(=O)(=O)N2CCN(c3nccs3)CC2)c(C)c1C` [Example 40, (S)-2-(4-(3-(1-(4-Methoxy-2,3,6-trimethylphenylsulfonyl)pyrrolidin-2-yl)propylsulfonyl)piperazin-1-yl)thiazole], for which the inhibition at 10 µM in assay [1] worked out at 50%. Same read-out and setting: the figure for `O=S(=O)(CCC1CCN(S(=O)(=O)c2csc3ccccc23)C1)N1CCC(CCN2CCCC2)CC1` (centres unmarked) [Example 3, 1-(2-(1-(Benzo[b]thiophen-3-ylsulfonyl)pyrrolidin-3-yl)ethylsulfonyl)-4-(2-(pyrrolidin-1-yl)ethyl)piperidine] is 55%. For the molecule `Cc1cc(C)c(S(=O)(=O)N2CCC(CCCS(=O)(=O)N3CCC(CCN4CCCC4)CC3)CC2)c(C)c1` [Example 12, 1-(Mesitylsulfonyl)-4-(3-(4-(2-(pyrrolidin-1-yl)ethyl)piperidin-1-ylsulfonyl)propyl)piperidine], the inhibition at 10 µM in assay [1] came out at 52%.

In the case of `Cc1cc(C)c(S(=O)(=O)N2CCC(CCS(=O)(=O)N3CCC(CCN4CCCC4)CC3)C2)c(C)c1` (centres unmarked) [Example 1, 1-(2-(1-(Mesitylsulfonyl)pyrrolidin-3-yl)ethylsulfonyl)-4-(2-(pyrrolidin-1-yl)ethyl)piperidine], the inhibition at 10 µM in assay [1] was determined as 83%.

As for `Cc1cc(C)c(S(=O)(=O)N2CCC(CCCS(=O)(=O)N3CCN(C4CCN(C)CC4)CC3)CC2)c(C)c1` [Example 13, 1-(3-(1-(Mesitylsulfonyl)piperidin-4-yl)propylsulfonyl)-4-(1-methylpiperidin-4-yl)piperazine], the inhibition at 10 µM in assay [1] amounted to 53%.

The values are drawn from patent publication US8119805B2, “Substituted disulfonamide compounds” (Gruenenthal GmbH, priority 2008, dated 2012).
